One experiment has as its target BRD4-1 (Homo sapiens (Human), UniProt O60885). Description: Bromodomain and Extraterminal Domain (BET) Binding Assay. As to conditions: Table 3; read-out: BRD4-1 IC50. How it is done:
(§1) The bromodomain binding assays were performed by Reaction Biology Corp., Malvern, Pa., USA (www.reactionbiology.com). The BET binding assays were conducted in 384 well microplates in assay buffer (50 mM HEPES-HCl, pH 7.5, 100 mM NaCl, 1 mg/ml BSA, 0.05% CHAPS, and 0.5% DMSO) with compounds added as DMSO stocks at a single concentration or with 10-point dose response titrations. BET protein or assay buffer were delivered to the appropriate wells of the microplate. Test compound was then delivered by acoustic technology via a Labcyte Echo550 liquid handler. The microplate was centrifuged for 5 min and pre-incubated for 30 min at RT with gentle shaking. The ligand (histone H4 peptide (1-21) K5/8/12/16Ac-biotin) was delivered and the microplate was again centrifuged for 5 min and allowed to incubate for 30 min at RT with gentle shaking. Donor beads were then added in the absence of light and the microplate was centrifuged and gently shaken. After 5 min, acceptor beads were added in the absence of light and the microplate was centrifuged and gently shakenin the dark for 60 min. The microplate was read using a Perkin Elmer EnSpire Alpha plate reader (λEx/λEm=680/520-620 nm). Percent inhibition was calculated relative to positive and negative controls on a per plate basis. For titration experiments, IC50 values were determined by fitting the percent inhibition versus compound concentration.

The target of a further experiment is BRD4-2 (Homo sapiens (Human), UniProt O60885). The experiment is described as above. Particulars: Table 3; read-out: BRD4-2 IC50. How it is done: as §1
Another experiment concerns c-Myc. Description: Measurement of c-Myc suppression after washoff (Western blot). The format is cell-based, human. Particulars: MV4-11, 2 μM for 2 hr, washed, further 6 hr. How it is done:
MV4-11 cells were incubated with 2 μM of JQ1, mivebresib or a test compound for 2 hr. The cells were then washed twice with fresh culture medium and further cultured for another 6 hr. Cells were extracted with SDS sample buffers and then subjected to Western blot analysis to measure c-Myc. Compounds 2, 3, 12, 17, 409, 411 and 412 were tested in these assays.
Background: In western blotting, separated proteins are transferred to a membrane and probed.

Experiment [1] deals with MV-4-11 human acute myeloid leukemia cell line. Description: Second cell viability assay in MV-4-11 (Cell Titer-Glo). It counts as cell-based. Particulars: MV4-11, Cell Titer-Glo, 72 hrs, read-out: Cell Viability IC50 in MV4-11 cells. The procedure: The effects of test compounds were studied in a second cell viability assay in the MV-4-11 human acute myeloid leukemia cell line. The cells were harvested during the logarithmic growth period and counted. Cells were seeded at a count of 15000 cells per well/100 μl. After seeding, cells were incubated at 37° C., 5% CO2 for 1 hr. Cells were treated with test compounds at 8 concentrations within a desired concentration range (e.g. 5 nM-[…]) for generation of dose response curves by preparing serial dilutions of the test compound in DMSO which were further diluted with culture medium and then added to each well. The plate was further incubated for another 72 hrs in a humidified incubator at 37° C. and 5% CO2. The assay was terminated by addition of Cell Titer-Glo reagent (Promega, Madison, Wis.) at ¼ the volume of total medium per well. Contents were mixed, the plate was incubated for 10 min at room temperature and luminescence was measured. Cell viability data were plotted using GraphPad Prism (GraphPad Software, Inc., San Diego, Calif.). In addition, a nonlinear regression model with a sigmoidal dose response and variable slope within GraphPad Prism was used to calculate the IC50 value of individual test compounds.
(Cellular ATP, detected with luciferase, serves as a proxy for viable cell number.)

For another experiment, the system named is 22Rv1 cells. Description: 22Rv1 cell proliferation assay with wash-off or mock wash-off. The format is cell-based, human. How it is done: A 22Rv1 cell proliferation assay was used to assess durability of test compound effects after transient exposure of test compound to cells. 22Rv1 cells were seeded at 3000 cells per well/100 μl in a 96-well plate and incubated with test compounds at specified dilutions for 2 hr at 37° C. and 5% CO2. Following the incubation, test compound was washed off and replacement culture medium without test compound was added. Wash-off was performed by three PBS washes. The cells were incubated for an additional 96 hr at 37° C. and 5% CO2. In parallel, a mock wash-off was performed with cells that were treated identically except that the replacement culture medium contained test compound. The plate was incubated for 4 hr at 37° C., 5% CO2 and fluorescence was measured using excitation and emission wavelengths of 535 and 590 nm, respectively. Cell viability data were plotted using GraphPad Prism (GraphPad Software, Inc., San Diego, Calif.). In addition, a nonlinear regression model with a sigmoidal dose response and variable slope within GraphPad Prism was used to calculate the IC50 value of individual test compounds.

Experiment [2] concerns IEC-6 rat intestinal epithelial cell line. Description: IEC-6 cell viability, Protocol B (toxicity to non-cancerous cells). Particulars: IEC-6, 4000 cells per well, 48 hrs. The format is cell-based. The procedure: The effects of test compounds were also studied in the IEC-6 rat intestinal epithelial cell line to assess potential toxicity to non-cancerous cells. The cells were harvested during the logarithmic growth period and counted. In Protocol A, cells were seeded at a count of 3000 cells per well/100 μl in a 96-well plate. After seeding, cells were incubated at 37° C., 5% CO2 for 24 hr. Cells were treated with test compounds at 8 concentrations within a desired concentration range (e.g. 5 nM-10 μM) for generation of dose response curves by preparing serial dilutions of the test compound in DMSO which were further diluted with culture medium and then added to each well. The plate was further incubated for another 96 hrs in humidified incubator at 37° C. and 5% CO2. The assay was terminated by addition of resazurin (# R7017, Sigma). The plate was incubated for 4 hr at 37° C., 5% CO2 and fluorescence was measured using excitation and emission wavelengths of 535 and 590 nm, respectively. Cell viability data were plotted using GraphPad Prism (GraphPad Software, Inc., San Diego, Calif.). In addition, a nonlinear regression model with a sigmoidal dose response and variable slope within GraphPad Prism was used to calculate the IC50 value of individual test compounds. Protocol B was the same as Protocol A except that cells were seeded at a count of 4000 cells per well/100 μl in a 96-well plate, and the incubation with test compound was for 48 hrs instead of 96 hrs.

Like-named read-outs stand apart in the source and are kept apart here.

In the case of `C#CC(=O)Nc1ccc(Oc2ccc(F)cc2F)c(-c2cc(NC)c(=O)n(C)c2)c1` [Compound 2, N-(4-(2,4-difluorophenoxy)-3-(1-methyl-5-(methylamino)-6-oxo-1,6-dihydropyridin-3-yl)phenyl)propiolamide], the IC50 – broadly, the point on the concentration scale where inhibition reaches its midpoint – amounted to 52 nM at BRD4-1 and 117 nM at BRD4-2. The “c-Myc suppression activity after washoff” value with c-Myc is reported as “less durable or no suppression activity”.

In the case of `C=CS(=O)(=O)Nc1ccc(Oc2ccc(F)cc2F)c(-c2cc(N)c(=O)n(C)c2)c1` [Compound 17, N-(3-(5-amino-1-methyl-6-oxo-1,6-dihydropyridin-3-yl)-4-(2,4-difluorophenoxy)phenyl)ethenesulfonamide], the concentration for half-maximal inhibition (IC50) was found to be 119 nM at BRD4-2 and 84 nM in experiment [1] (Homo sapiens). For the same compound, the “c-Myc suppression activity after washoff” value in the experiment on c-Myc is “sustained c-Myc suppression activity”.

Turning to `C=CS(=O)(=O)Nc1ccc(Oc2ccc(F)cc2F)c(-c2cn(C)c(=O)cc2OC)c1` [Compound 406, N-(4-(2,4-difluorophenoxy)-3-(4-methoxy-1-methyl-6-oxo-1,6-dihydropyridin-3-yl)phenyl)ethenesulfonamide], the IC50 on BRD4-1 was determined as 22 nM; at BRD4-2, 3 nM; in the experiment with 22Rv1 cells (Homo sapiens, 22Rv1, 2 hr exposure, three PBS washes, additional 96 hr without compound, read-out: Wash-off IC50), 415 nM; in the experiment on 22Rv1 cells (Homo sapiens, 22Rv1, 2 hr, replacement medium with test compound, additional 96 hr, read-out: Mock wash-off IC50) it was 255 nM; in experiment [1] (Homo sapiens), 114 nM.

In the case of `C=CC(=O)Nc1ccc(Oc2ccc(F)cc2F)c(-c2cn(C)c(=O)cc2OC)c1` [Compound 407, N-(4-(2,4-difluorophenoxy)-3-(4-methoxy-1-methyl-6-oxo-1,6-dihydropyridin-3-yl)phenyl)acrylamide], the IC50 was determined as 183 nM on BRD4-1, 11 nM on BRD4-2, 693 nM in experiment [2] (Rattus norvegicus) and 51 nM in experiment [1] (Homo sapiens). Besides, the “c-Myc suppression activity after washoff” value in the experiment on c-Myc was “less durable activity”.

For the compound `C=CC(=O)Nc1ccc(Oc2ccc(OC)cc2)c(-c2cn(C)c(=O)c3ccccc23)c1` [Compound 409, N-(4-(4-methoxyphenoxy)-3-(2-methyl-1-oxo-1,2-dihydroisoquinolin-4-yl)phenyl)acrylamide], the IC50 on BRD4-1 worked out at 479 nM; on BRD4-2, 75 nM; in experiment [1] (Homo sapiens), 253 nM. Besides, the “c-Myc suppression activity after washoff” value in the experiment with c-Myc is recorded as “rebound in c-Myc expression”.

Take `C=CC(=O)Nc1ccc(Oc2c(C)cccc2C)c(-c2cc(NC)c(=O)n(C)c2)c1` [Compound 411, N-(4-(2,6-dimethylphenoxy)-3-(1-methyl-5-(methylamino)-6-oxo-1,6-dihydropyridin-3-yl)phenyl)acrylamide]: the IC50 stood at 347 nM on BRD4-1, 10 nM at BRD4-2 and 74 nM in experiment [1] (Homo sapiens). The “c-Myc suppression activity after washoff” value in the experiment on c-Myc is listed as “less durable or no suppression activity”.

For the compound `C=CC(=O)Nc1ccc(Oc2c(C)cccc2C)c(-c2cn(C)c(=O)c3cc(C(=O)NCC)sc23)c1` [Compound 412, 7-(5-acrylamido-2-(2,6-dimethylphenoxy)phenyl)-N-ethyl-5-methyl-4-oxo-4,5-dihydrothieno[3,2-c]pyridine-2-carboxamide], the IC50 on BRD4-1 was found to be 1740 nM; at BRD4-2, 4 nM; in experiment [1] (Homo sapiens) it was 25 nM. Further, the “c-Myc suppression activity after washoff” value in the experiment with c-Myc is “less durable or no suppression activity”.

For the compound `C=CC(=O)Nc1ccc(Oc2c(C)cccc2C)c(-c2cn(C)c(=O)cc2OC)c1` [Compound 584, N-(4-(2,6-dimethylphenoxy)-3-(4-methoxy-1-methyl-6-oxo-1,6-dihydropyridin-3-yl)phenyl)acrylamide], the half-inhibitory concentration (IC50) turned out to be 226 nM on BRD4-1, 1 nM on BRD4-2 and 33 nM in experiment [1] (Homo sapiens). Further, the “c-Myc suppression activity after washoff” value in the experiment on c-Myc is “less durable activity”.

Regarding `C=CC(=O)Nc1ccc(Nc2c(C)cccc2C)c(-c2cn(C)c(=O)c3cc(C(=O)NCC)sc23)c1` [Compound 585, 7-(5-acrylamido-2-(2,6-dimethylphenylamino)phenyl)-N-ethyl-5-methyl-4-oxo-4,5-dihydrothieno[3,2-c]pyridine-2-carboxamide], the values for the concentration for half-maximal inhibition (IC50) (on BRD4-1; at BRD4-2; in experiment [1] (Homo sapiens)) were 5070 nM, 43 nM and 221 nM, respectively. Further, the “c-Myc suppression activity after washoff” value in the experiment on c-Myc was “less durable activity”.

Take `C=CC(=O)Nc1ccc(Oc2c(C)cc(F)cc2C)c(-c2cn(C)c(=O)c3cc(C(=O)NCC)sc23)c1` [Compound 588, 7-(5-acrylamido-2-(4-fluoro-2,6-dimethylphenoxy)phenyl)-N-ethyl-5-methyl-4-oxo-4,5-dihydrothieno[3,2-c]pyridine-2-carboxamide]: the half-maximal inhibitory concentration (IC50) stood at 2850 nM at BRD4-1, 6 nM at BRD4-2 and 82 nM in experiment [1] (Homo sapiens). For the same compound, the “c-Myc suppression activity after washoff” value in the experiment with c-Myc is recorded as “less durable activity”.

For the compound `CCS(=O)(=O)Nc1ccc(Oc2ccc(F)cc2F)c(-n2cc(Cl)c(=O)c3ccccc32)c1` [Compound 661, N-(3-(3-chloro-4-oxoquinolin-1(4H)-yl)-4-(2,4-difluorophenoxy)phenyl)ethanesulfonamide], the IC50 was found to be 20 nM at BRD4-1, 5 nM at BRD4-2, 273 nM in experiment [2] (Rattus norvegicus) and 71 nM in experiment [1] (Homo sapiens).

`CCS(=O)(=O)Nc1ccc(Oc2ccc(F)cc2F)c(-n2ccc(=O)c3ccccc32)c1` [Compound 709, N-(4-(2,4-difluorophenoxy)-3-(4-oxoquinolin-1(4H)-yl)phenyl)ethanesulfonamide]: the 50% inhibitory concentration (IC50) at BRD4-1 came to 1210 nM; on BRD4-2, 93 nM; in experiment [2], 2900 nM; in experiment [1], 979 nM.

As to `Cc1sc2c(c1C)C(c1ccc(Cl)cc1)=N[C@@H](CC(=O)OC(C)(C)C)c1nnc(C)n1-2` [JQ1, reference compound], the IC50 in the experiment on 22Rv1 cells (22Rv1, 2 hr exposure, three PBS washes, additional 96 hr without compound, read-out: Wash-off IC50) was > 10000 nM; with 22Rv1 cells (22Rv1, 2 hr, replacement medium with test compound, additional 96 hr, read-out: Mock wash-off IC50) it was 71 nM.
